The assay deals with lipoperoxide produced in brain homogenate. Nature of the assay: Inhibitory effect on lipid peroxidation in rat cerebral cortical homogenates (thiobarbituric acid method). It is filed as biochemical. The following applies: rat cerebral cortical homogenate supernatant, 37° C. for 30 minutes, absorbance at 532 nm. On the procedure: Inhibitory Effect on Lipid Peroxidation in Rat Cerebral Cortical Homogenates and Orally Treated Mice
Quantitative determination of lipoperoxide produced in brain homogenate was performed according to the method of Stocks et al. (Clin. Sci. Mol. Med. 47-215(1974)). As animals, brains of Jcl. Wistar male rats, 10-13 weeks age, were used. Rat cerebral cortices were obtained after decapitation, homogenized in an ice-cooled phosphate saline buffer (50 mM Ph 7.4) (Nichion Microhomogenizer, S-310E), centrifuged at 10,000 g for 10 minutes (Hitachi CF15D type, RT15A6 Anglerotor), and the supernatant was used in a test. This supernatant was diluted 3-fold with the same buffer. To this 1 mL were added […] of test drugs dissolved in dimethyl sulfoxide (DMSO) to the final concentration of 0.0125, 0.025, 0.05, 0.10, 0.20, 0.40, 0.80 and 1.60 μM, respectively, which was incubated at 37° C. for 30 minutes. The reaction was stopped by addition of 200 μL of 35% perchloric acid, and centrifuged at 13,000 g for 10 minutes. To 1 mL of this supernatant was added 0.5 mL of 2-thiobarbituric acid (500 mg/100 mL) dissolved in 50% acetic acid, heated to boil at 95° C. for 15 minutes, which was determined by the absorbance at 532 nm. […]

The structures appear in SMILES notation. Counter-ions that a name gives are not always drawn.

In turn, `Cc1c2c(c(C)c3c1NCC3)OC(C)(CN1CCC(c3ccccc3)CC1)C2` (centres unmarked) [Example 11, 3,5,6,7-Tetrahydro-2,4,8-trimethyl-2-[(4-phenylpiperidino)methyl]-2H-furo[2,3-f]indole] had an IC50 of 67 nM.

As to `Cc1c2c(c(C)c3c1NCC3)OC(C)(CN1CCC(NC(c3ccccc3)c3ccccc3)CC1)C2` (centres unmarked) [Example 18, N-(Diphenylmethyl)-1-[(3,5,6,7-tetrahydro-2,4,8-trimethyl-2H-furo[2,3-f]indol-2-yl)methyl]-4-piperidinamine trihydrochloride], the IC50 is 360 nM.

Broadly, the IC50 is the midpoint of a concentration-inhibition curve.

For the origin of these results see patent US6872718B1, “Tricyclic dihydrobenzofuran derivatives, process for the preparation thereof and agents” (Takeda Chemical Industries, Ltd., priority 1999, dated 2005).
